Experimental findings from ChEMBL document CHEMBL3044816, “Mode of Action of Herbicidal N-Benzyl-4-chloro-N-isobutyl-2-pentenamides” (J Pestic Sci, 2002) are described below.

Molecules are shown by their SMILES. The source made the active and inactive calls. The rule behind the calls is not given here. Some results are limits rather than exact numbers.

One experiment concerns Echinochloa crus-galli. Description: Herbicidal activity against Echinochloa crus-galli (barnyard grass) assessed as damage of seedlings. The format is functional.
The subject of experiment [1] is Scenedesmus acutus. Nature of the experiment: Phytotoxic activity against Scenedesmus acutus assessed as phytoene accumulation. The format is functional, organism-based.
In experiment [2] the test system is Scenedesmus acutus. Nature of the experiment: Phytotoxic activity against Scenedesmus acutus assessed as zeta-carotene accumulation. The experiment is classed as functional, organism-based.

For `CC(Cl)/C=C/C(=O)N(Cc1ccc(C(F)(F)F)cc1)CC(C)C` (stereo unspecified), the ED90 in the experiment with Echinochloa crus-galli was determined as 31 gAi/ha.
On to `CNc1cnn(-c2cccc(C(F)(F)F)c2)c(=O)c1Cl`, for which, in the experiment with Scenedesmus acutus [1], the outcome was Active.
With `CC(Cl)/C=C/C(=O)N(Cc1ccc(S(C)(=O)=O)cc1)CC(C)C` (stereo unspecified), in the experiment on Echinochloa crus-galli, the ED90 is given as more than 1000 gAi/ha.
On to `CC(Cl)/C=C/C(=O)N(Cc1ccc(C#N)cc1)CC(C)C` (stereo unspecified), for which the ED90 in the experiment on Echinochloa crus-galli is on record as 16 gAi/ha.
As for `COc1ccc(C(=O)c2cccc(C)c2)cc1C`, the outcome in the experiment on Scenedesmus acutus [2] was Active.
As for `CC(Cl)/C=C/C(=O)N(Cc1ccc(Cl)cc1)CC(C)C` (stereo unspecified), the ED90 in the experiment on Echinochloa crus-galli is 16 gAi/ha.
